Source: publication PMC8886686 (Journal of Inorganic Biochemistry, 2022)

Assays:
[1] = biological target: PLpro^C112S (Severe acute respiratory syndrome coronavirus 2, UniProt P0DTD1, C1674S); type: binding, SARS-CoV-2
[2] = biological target: 3CLpro^D155A/C156S (Severe acute respiratory syndrome coronavirus 2, UniProt P0DTD1, C3419S/D3418A); type: biochemical, SARS-CoV-2; settings: read-out: IC50, 3CLpro^D155A/C156S activity

O=C([O-])[C@H](O)[C@@H](O)[C@H](O)[C@H](O)CO.O=C([O-])[C@H](O)[C@@H](O)[C@H](O)[C@H](O)CO.[Zn+2] [Zn^2+, zinc gluconate]
Zn2+ binding capacity of PLpro^C112S (ICP-MS) [1]: 0.71 ± 0.01 eq.
IC50 [2]: 1540 ± 50 nM
